Results published in ChEMBL document CHEMBL2331345, “Syntheses of lipophilic chalcones and their conformationally restricted analogues as antitubercular agents” (Bioorg Med Chem Lett, 2013).
In brackets after ≈: the same amount, converted by molar mass. Activity calls are given as the source filed them. No cut-off for these calls is given here.

Assays:
[1] = tested on: Mycobacterium tuberculosis; test: Antitubercular activity against Mycobacterium tuberculosis H37Rv ATCC 27294 assessed as growth inhibition measured every 24 hrs by BACTEC radiosusceptibility assay; format: functional; conditions: H37Rv ATCC 27294, 24 h
HEK293 = test: Cytotoxicity against human HEK293 cells assessed as inhibition of cell viability after 24 hrs by MTT assay; format: cell-based; conditions: HEK293, 24 h
[2] = tested on: Mycobacterium tuberculosis; test: Antitubercular activity against Mycobacterium tuberculosis assessed as growth inhibition; format: functional
[3] = tested on: Mycobacterium tuberculosis; test: Antitubercular activity against Mycobacterium tuberculosis H37Rv ATCC 27294 assessed as growth inhibition at 250 ug/ml measured every 24 hrs by BACTEC radiosusceptibility assay; format: functional, organism-based
[4] = Selectivity ratio of IC50 for human HEK293 cells to MIC for Mycobacterium tuberculosis H37Rv ATCC 27294; format: functional
Mycobacterium sp. = test: Antibacterial activity against Mycobacterium sp. assessed as growth inhibition; format: functional

Question: Which MIC [1] does the source give for `COc1ccc(/C=C/c2c(-c3ccccc3)c(=O)oc3cc(O)ccc23)cc1` here?
Answer: The MIC was 125 µg/mL (≈ 337 µM).

Question: What about the IC50 (HEK293) of the same molecule?
Answer: Its IC50 is greater than 250 µg/mL.

Question: Which MIC [2] does the source give for `C=CC(C)(C)c1cc(/C=C/C(=O)c2ccc(O)cc2)c(OC)cc1O` [LICOAGROCHACONE A] here?
Answer: The MIC was 7.1 µg/mL (≈ 21 µM).

Question: For `CN[C@@H]1[C@H](O[C@H]2[C@H](O[C@H]3[C@H](O)[C@@H](O)[C@H](N=C(N)N)[C@@H](O)[C@@H]3N=C(N)N)O[C@@H](C)[C@]2(O)C=O)O[C@@H](CO)[C@H](O)[C@H]1O` [STREPTOMYCIN], which MIC [1] is on record?
Answer: The MIC was 2 µg/mL (≈ 3.44 µM).

Question: Which MIC [1] does the source give for `COc1ccc(C(=O)/C(=C/c2ccc(OCC(=O)O)cc2)c2ccccc2)cc1` here?
Answer: Its MIC is 250 µg/mL (≈ 644 µM).

Question: With `COc1cc(CCc2ccc3c(c2)OCO3)oc(=O)c1` as the molecule, how does the MIC [2] read?
Answer: Its MIC is 32 µg/mL (≈ 117 µM).

Question: With `COc1cc(/C=C/c2ccccc2)oc(=O)c1` [DESMETHOXYYANGONIN] as the molecule, how does the MIC [2] read?
Answer: The MIC was 4 µg/mL (≈ 17.5 µM).

Question: Which MIC [2] does the source give for `COc1ccc2ccc(=O)oc2c1CC=C(C)C` [OSTHOLE] here?
Answer: The MIC was 32 µg/mL (≈ 131 µM).

Question: Which “growth inhibition (GI)” value [3] does the source give for `COc1ccc2c(/C=C/c3ccc(OCCN4CCCC4)cc3)c(-c3ccccc3)c(=O)oc2c1` here?
Answer: The value was “inactive”.

Question: With `COc1ccc2c(/C=C/c3ccc(OCCN4CCCCC4)cc3)c(-c3ccccc3)c(=O)oc2c1` as the molecule, how does the MIC [1] read?
Answer: The MIC was 3.5 µg/mL (≈ 7.27 µM).

Question: And the IC50 (HEK293)?
Answer: The IC50 was 5 µg/mL (≈ 10.4 µM).

Question: And the Ratio [4]?
Answer: The Ratio was 2.85.

Question: With `COc1ccc(/C=C/C(=O)c2ccc(O)cc2O)cc1` as the molecule, how does the “growth inhibition (GI)” value [3] read?
Answer: Its value is “inactive”.

Question: Which results are given for `COc1ccc2c(/C=C/c3ccc(OC(C)CN(C)C)cc3)c(-c3ccccc3)c(=O)oc2c1` (stereo not drawn)?
Answer: MIC [1]: 7.5 µg/mL (≈ 16.5 µM); IC50 (HEK293): 5 µg/mL (≈ 11 µM)

Question: With `CO[C@H]1/C=C/O[C@@]2(C)Oc3c(C)c(O)c4c(O)c(c(/C=N/N5CCN(C)CC5)c(O)c4c3C2=O)NC(=O)/C(C)=C\C=C\[C@H](C)[C@H](O)[C@@H](C)[C@@H](O)[C@@H](C)[C@H](OC(C)=O)[C@@H]1C` [RIFAMPIN] as the molecule, how does the MIC [1] read?
Answer: The MIC was 2 µg/mL (≈ 2.43 µM).

Question: With `COc1ccc(C(=O)/C(=C/c2ccc(O)cc2)c2ccccc2)cc1` as the molecule, how does the MIC [1] read?
Answer: The MIC was 60 µg/mL (≈ 182 µM).

Question: What about the IC50 (HEK293) of the same molecule?
Answer: Its IC50 is 50 µg/mL (≈ 151 µM).

Question: Which “growth inhibition (GI)” value [3] does the source give for `COc1ccc(C(=O)/C=C/c2ccc(O)cc2)c(O)c1` here?
Answer: The value was “inactive”.

Question: For `COc1ccc2c(/C=C/c3ccc(O)cc3)c(-c3ccccc3)c(=O)oc2c1`, which MIC [1] is on record?
Answer: The MIC was 30 µg/mL (≈ 81 µM).

Question: And the IC50 (HEK293)?
Answer: The IC50 was greater than 250 µg/mL.

Question: And the Ratio [4]?
Answer: The Ratio was 16.

Question: For `CCCCN(C)C(=O)COc1ccc(/C=C(/C(=O)c2ccc(OC)cc2)c2ccccc2)cc1`, which “growth inhibition (GI)” value [3] is on record?
Answer: Its value is “inactive”.

Question: Which MIC (Mycobacterium sp.) does the source give for `CC(C)=CCC/C(C)=C/CC/C(C)=C/Cc1c(O)c2ccccc2oc1=O` here?
Answer: The MIC was 2 µg/mL (≈ 5.46 µM).

Question: Which MIC [2] does the source give for `CC(C)=CCOc1c2ccoc2cc2oc(=O)ccc12` [ISOIMPERATORIN] here?
Answer: Its MIC is 64 µg/mL (≈ 237 µM).

Question: With `COc1ccc2c(/C=C/c3ccc(OC(C)=O)cc3)c(-c3ccccc3)c(=O)oc2c1` as the molecule, how does the “growth inhibition (GI)” value [3] read?
Answer: The value was “inactive”.

Question: Which MIC [2] does the source give for `COc1cc2oc(=O)ccc2cc1CC=C(C)C` [SUBEROSIN] here?
Answer: Its MIC is 16 µg/mL (≈ 65.5 µM).

Question: Which “growth inhibition (GI)” value [3] does the source give for `CCCCNC(=O)COc1ccc(/C=C(/C(=O)c2ccc(OC)cc2)c2ccccc2)cc1` here?
Answer: The value was “inactive”.
